{"source": "patent US8309324B2", "about": "“Promoters and proteins from Clostridium thermocellum and uses thereof” (University of Rochester, priority 2004, dated 2012)", "molecules": {"B1": {"name": "GlyR3: C. thermocellum LacI-like repressor protein, amino acid sequence SEQ ID NO:3; rGlyR3 is the recombinant form expressed in E. coli (protein)", "chain": "MTSEEIAKLCGVSRATVSRVINNSPNVKEETRQKILAVIKEKNYVPIAPARRLAGIDSNIIGLFVLDIDISESKSRVSESTYFSRLINLIIDQANNFGFQVLVSIITSQKQLSEIRNLFMSRTIFSGIFIGAFNDEIQLDDDIIMQHPTIIIDRQSERMVKKPNRLVVNLDNFEGAYNATQFLIKLGHTRIGHISGDLRKLSGIERYEGYKKALEDAGLGFDKNLVREGNFLDDSGYRLAREILKENVTAIFCANDVMAISAIKAIKETGLSVPDDISVIGFDNTAIGNYIMPALTTVNAPLEHIAEACIESLKYFCEHKHFKQKEIRVKTDLIIRDSTKRALEF", "modifications": "C. thermocellum", "notes": "rGlyR3 is the recombinant form expressed in E. coli"}}, "key": {"[1]": {"system": "rGlyR3-celC promoter complex", "assay": "EMSA, effect of sugars on the rGlyR3-celC promoter complex", "format": "binding, Clostridium thermocellum", "conditions": "for effect of sugar on the rGlyR3-celC promoter binding reaction: 15 mM sugar, 5 ng 100 bp celC promoter DNA, 0.5 ng rGlyR3, FIG. 17", "method": "The EMSA analyzing biotin labeled DNA fragments. Lane 1, no protein and 5 ng DNA; Lanes 2-12 contain 5 ng 100 bp celC promoter DNA, 0.5 ng rGlyR3 and 15 mM of their respected sugars.\n(§1) All EMSA experiments described herein were performed using a 4% polyacrylamide gel and Tris-Borate-EDTA buffer. EMSA reactions all contained: 500 ng poly (dI-dC), 1× Lightshift EMSA kit binding buffer (Pierce), 1× Lightshift loading dye (Pierce), optimized amounts of DNA probe, protein, and saccharides as specified in figure legends.\nThe binding of the rGlyR3 protein was inhibited by laminaribiose. Several sugars were tested to see if they could inhibit the rGlyR3-celC promoter complex."}, "celC transcription": {"system": "celC transcription", "assay": "In vitro transcription assay (RT-qPCR readout)", "format": "biochemical, Clostridium thermocellum", "method": "The baseline transcription mixture consists of: rNTPs, transcription buffer, 1 ug of 850 bp DNA containing celC and its promoter region, 10 ul C. thermocellum cell lysate (grown on cellobiose). After transcription, the RNA was harvested, DNase I digested, used in a Reverse Transcriptase reaction and then in qPCR.\nA DNA template for in vitro transcription was created using the following primers (SEQ ID NO:30): Invt-F-[…]; (SEQ ID NO:31): Invt-R-CCAGTGGGCTTTCTGATGC) to amplify the 200 bp celC promoter along with 650 bp of the celC gene. PCR used a standard reaction for Extensor Hi-Fidelity Enzyme with genomic DNA as template. Each in vitro transcription assay contained: 10 μl C. thermocellum cell lysate (cellobiose grown culture), 2 μl RNase Out (Invitrogen, Carlsbad, Calif.), 1× RNA polymerase buffer, 1 μg of DNA template, 25 nM rNTP's, differing amounts of rGlyR3, differing amounts of laminaribiose, and DEPC water to a volume of 50 μl. The reactions were incubated at 60° C. for 50 minutes. After incubation the resulting RNA was isolated using the previously described Trizol method. The isolated RNA was subjected to DNase I digestion and a standard reverse transcription reaction as described above. Using the qPCR protocol already outlined, with primers for celC, it was possible to show the amount of transcript created for each reaction."}, "CelR": {"target": "T1, CelR (Thermobifida fusca, UniProt O87590)", "T1 sequence (O87590 1-340)": "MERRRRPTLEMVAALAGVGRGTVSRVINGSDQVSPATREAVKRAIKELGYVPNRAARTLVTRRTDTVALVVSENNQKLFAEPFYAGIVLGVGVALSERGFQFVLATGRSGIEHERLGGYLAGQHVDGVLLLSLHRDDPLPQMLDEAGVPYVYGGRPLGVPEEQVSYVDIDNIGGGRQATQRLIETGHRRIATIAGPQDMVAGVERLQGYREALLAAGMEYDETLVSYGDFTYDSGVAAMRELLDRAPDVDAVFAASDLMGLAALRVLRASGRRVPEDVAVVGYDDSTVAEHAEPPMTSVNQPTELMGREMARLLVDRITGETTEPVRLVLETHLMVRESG", "conditions": "Spiridonov et al. 1999; cited from earlier work"}, "[2]": {"system": "celC, glyR3, licA, orf4, manB and celT transcripts", "assay": "RT-qPCR, inducibility of gene expression in C. thermocellum grown on different substrates", "format": "cell-based, Clostridium thermocellum", "conditions": "substrate 0.5%, time course of 50 hrs, compared with 1-3 linked sugars, FIG. 2", "method": "FIG. 2 is a graph showing RT-qPCR results detailing the inducibility of expression of celC, glyR3 and licA when Clostridium thermocellum is grown on a 1-3 linked sugar: lichenan, laminarin and laminaribiose, compared to the 1-4 linked sugar, cellobiose. The bacterium was grown on the substrates for a time course of 50 hrs. Each 10 hours a sample was taken and the RNA harvested, DNase I digested, subjected to reverse transcription, and then qPCR. Columns left to right for each substrate represent relative transcription levels of celC, glyR3, licA orf4 manB and ceIT, respectively. The qPCR levels are all relative to the 16S transcript in C. thermocellum.\nTo test the effect of growth substrate on the inducibility of the expression of celC, glyR3, licA, orf4, manB, and celT genes in C. thermocellum, C. thermocellum was grown on substrates containing either a 1-4 linked sugar (cellobiose) or a 1-3 linked sugar (laminarin, lichenan, and laminaribiose). RT-qPCR was carried out on the cells to determine the level of 16S transcripts of the genes, as follows.\nThe bacterium was grown on the substrates for a time course of 50 hrs. Each 10 hrs a sample was taken. Cultures were centrifuged to collect the cells. Everything used from this point forward was RNase free. […] RNA concentration was measured using a Hitachi U-2000 spectrophotometer at 260/280 nm. […]"}, "[3]": {"system": "rGlyR3-celC promoter complex", "assay": "EMSA rGlyR3 binding site competition assay", "design": "species or system Clostridium thermocellum", "conditions": "100x unlabeled competitor, 0.5 ng rGlyR3, FIG. 16", "method": "FIG. 16 is a gel showing the results of an EMSA rGlyR3 binding site competition assay. A gel shift competition assay was used to analyze specificity of binding and confirm the DNase I footprint results. All lanes contain biotin labeled 100 bp celC promoter fragment containing the binding site. Lane 1, no protein; Lane 2, 0.5 ng rGlyR3; Lane 3, 0.5 ng rGlyR3 and 100× unlabeled 18 bp binding site; Lane 4, 0.5 ng rGlyR3 and 100 × control fragment (18 bp piece of original 100 bp region, contains no part of putative binding site).\nas §1\nThe 18 bp sequence corresponds to (SEQ ID NO:36): AATGAACGC GCGTACATT."}, "celC promoter region": {"system": "celC promoter region", "assay": "EMSA, binding of rGlyR3 to the celC promoter region", "design": "species or system Clostridium thermocellum", "method": "Gel Shift, or Band Shift Assay, or Electrophoretic Mobility Shift Assay (EMSA) is a technique for studying gene regulation and determining protein:DNA interactions. The assay is based on the observation that complexes of protein and DNA migrate through a non-denaturing polyacrylamide gel more slowly than free DNA fragments or double-stranded oligonucleotides. The gel shift assay is carried out by first incubating a protein(s) (such as nuclear or cell extract) with a 32^P end-labeled DNA fragment containing the putative protein binding site. The reaction products are then analyzed on a non-denaturing polyacrylamide gel. The specificity of the DNA-binding protein for the putative binding site is established by competition experiments using DNA fragments or oligonucleotides containing a binding site for the protein of interest or other unrelated DNA sequences.\nas §1\nEMSA gels were electroblotted onto Biodyne B membrane (Pall Corporation). Signal development was accomplished using the Lightshift Chemiluminescent EMSA kit protocol (Pierce). Kodak Biomax film captured the luminescence for viewing.\nProbes for EMSA were created using PCR with Thermostart Taq (ABgene) as a polymerase. The standard Thermostart protocol was used with varying extension times (1 kb/minute rule always followed) and different annealing temperatures (57° C.-62° C.). Primers were synthesized with a 5′ biotin label by Invitrogen (Carlsbad, Calif.). Primers (5′-3′) used: […]\nFor probes that contained just the 18 bp binding site, complementary DNA fragments were synthesized and annealed by heating to 94 C and then cooling:\n(§2) The dissociation constant was determined as the concentration of GlyR3 needed to shift 50% of the celC promoter region in the EMSA."}, "[4]": {"system": "200 bp fragment of the celS structure gene", "assay": "EMSA, rGlyR3 with celS structure gene fragment as probe", "format": "binding, Clostridium thermocellum", "conditions": "FIG. 11, lanes 5 and 6", "method": "as §1, §2"}}, "note": "Entries after “also recorded” stand apart in the source; their conditions may differ."}
{"molecule": "OC[C@H]1O[C@@H](O[C@H]2[C@H](O)[C@@H](O)C(O)O[C@@H]2CO)[C@H](O)[C@@H](O)[C@H]1O", "note": "(some centres unmarked) [lactose]", "values": [{"measurement": "effect of sugar on the rGlyR3-celC promoter binding reaction", "setting": "[1]", "value": "no effect"}]}
{"molecule": "OC[C@H]1O[C@@H](O[C@H]2[C@H](O)[C@@H](CO)OC(O)[C@@H]2O)[C@H](O)[C@@H](O)[C@@H]1O", "note": "(some centres unmarked) [laminaribiose]", "values": [{"measurement": "effect on celC transcription in presence of GlyR3", "setting": "celC transcription; 5 mM laminaribiose in addition to 400 ng GlyR3, FIG. 3", "value": "transcription returned to baseline levels or greater"}, {"measurement": "effect of sugar on the rGlyR3-celC promoter binding reaction", "setting": "[1]", "value": "severely reduced the formation of the DNA-protein complex"}, {"measurement": "effect on binding of GlyR3 to the 18 bp binding site", "setting": "[1]; FIG. 15", "value": "inhibited"}, {"measurement": "effect of laminaribiose on GlyR3-100 bp celC promoter interaction", "setting": "[1]; GlyR3 0.5 ng, DNA 5 ng, increasing laminaribiose, FIG. 9", "value": "inhibited; also recorded: DNA-protein complex diminished as the concentration of laminaribiose increased"}]}
{"molecule": "OC[C@H]1O[C@@](CO)(O[C@H]2O[C@H](CO)[C@@H](O)[C@H](O)[C@H]2O)[C@@H](O)[C@@H]1O", "note": "[sucrose]", "values": [{"measurement": "effect of sugar on the rGlyR3-celC promoter binding reaction", "setting": "[1]", "value": "no effect"}]}
{"molecule": "O=C[C@H](O)[C@@H](O)[C@H](O[C@@H]1O[C@H](CO)[C@@H](O)[C@H](O)[C@H]1O)[C@H](O)CO", "note": "[cellobiose]", "values": [{"measurement": "concentration inhibiting binding of CelR to its target DNA sequence", "setting": "CelR", "value": "0.2 to 0.5", "unit": "mM"}, {"measurement": "transcript level of the gene cluster relative to 16S transcript", "setting": "[2]", "value": "less of the transcript containing the genes is produced"}]}
{"molecule": "OC[C@H]1O[C@@H](OC[C@H]2OC(O)[C@H](O)[C@@H](O)[C@@H]2O)[C@H](O)[C@@H](O)[C@@H]1O", "note": "(some centres unmarked) [gentibiose]", "values": [{"measurement": "effect of sugar on the rGlyR3-celC promoter binding reaction", "setting": "[1]", "value": "no effect"}]}
{"molecule": "unlabeled 18 bp binding site: 18 bp near perfect palindromic sequence of the celC promoter, SEQ ID NO:36: AATGAACGC GCGTACATT (DNA AATGAACGCGCGTACATT; listed as DNA, chemistry not given here)", "values": [{"measurement": "competition for the shifted band of the 100 bp celC promoter fragment", "setting": "[3]", "value": "able to compete out the shifted band"}]}
{"molecule": "OC[C@H]1O[C@H](O[C@H]2[C@H](O)[C@@H](O)[C@H](O)O[C@@H]2CO)[C@H](O)[C@@H](O)[C@@H]1O", "note": "[maltose]", "values": [{"measurement": "effect of sugar on the rGlyR3-celC promoter binding reaction", "setting": "[1]", "value": "no effect"}]}
{"molecule": "B1", "values": [{"measurement": "effect on transcription of the celC gene in vitro", "setting": "celC transcription; 400 ng GlyR3, FIG. 3", "value": "can inhibit transcription"}, {"measurement": "binding to first and second halves of the celC promoter (band shift)", "setting": "celC promoter region; 0.5 ng rGlyR3, 5 ng of each probe, FIG. 11", "value": "creates a shifted band with both probes"}, {"measurement": "binding to the 200 bp celC promoter region", "setting": "celC promoter region; 1 ng protein, 5 ng DNA, FIG. 12", "value": "binds"}, {"measurement": "binding to a control fragment of 18 bp located within the celC promoter", "setting": "celC promoter region; FIG. 13", "value": "no binding"}, {"measurement": "binding to the 18 bp DNA fragment (binding site)", "setting": "celC promoter region; FIG. 13", "value": "dose dependent binding"}, {"measurement": "binding to 200 bp fragment of the celS structure gene", "setting": "[4]", "value": "does not bind"}]}
